Experimental data from ChEMBL document CHEMBL3621188, “Evaluation of (acyloxy)alkyl ester linkers for antibiotic release from siderophore-antibiotic conjugates” (Bioorg Med Chem Lett, 2015).
In brackets after ≈: the same amount, converted by molar mass.

Key:
[1] = Half life of compound in HEPES buffer measured at pH 7.5 and 30 DegC by HPLC analysis; assay type: physicochemical
[2] = Drug degradation in HEPES buffer assessed as decomposition measured at pH 7.5 and 30 DegC after 21 hrs by HPLC analysis; assay type: physicochemical; details: read-out: Drug degradation
[3] = Stability of compound in HEPES buffer assessed as hydrolysis measured at pH 7.5 and 30 DegC after 9 hrs by HPLC analysis; assay type: physicochemical; details: pH 7.5, 9 h
Escherichia coli = test: Antimicrobial activity against Escherichia coli K-12 measured after 19 hrs; assay type: functional; details: K-12, 19 h

SMILES | half-life [1] [h] | degraded at 21 h [2] [%] | Stability [3] | MIC (Escherichia coli) [µM]
CC(OC(=O)[C@H](C)NC(=O)c1cc(O)c(O)c(C(=O)N[C@H]2COC(=O)[C@@H](NC(=O)c3cccc(O)c3O)COC(=O)[C@@H](NC(=O)c3cccc(O)c3O)COC2=O)c1)OC(=O)N1CCN(c2cc3c(cc2F)c(=O)c(C(=O)O)cn3C2CC2)CC1 (stereo not given in full) | 8.1 | – | Unstable | 1 (≈ 1.19 µg/mL)
CC(OC(=O)[C@@H](NC(=O)c1cc(O)c(O)c(C(=O)N[C@H]2COC(=O)[C@@H](NC(=O)c3cccc(O)c3O)COC(=O)[C@@H](NC(=O)c3cccc(O)c3O)COC2=O)c1)C(C)C)OC(=O)N1CCN(c2cc3c(cc2F)c(=O)c(C(=O)O)cn3C2CC2)CC1 (stereo not given in full) | 9.9 | – | Unstable | 1 (≈ 1.21 µg/mL)
O=C(NCCCCCC(=O)N1CCN(c2cc3c(cc2F)c(=O)c(C(=O)O)cn3C2CC2)CC1)c1cc(O)c(O)c(C(=O)N[C@H]2COC(=O)[C@@H](NC(=O)c3cccc(O)c3O)COC(=O)[C@@H](NC(=O)c3cccc(O)c3O)COC2=O)c1 | 8.7 | – | – | –
O=C(O)c1cn(C2CC2)c2cc(N3CCNCC3)c(F)cc2c1=O [CIPROFLOXACIN] | – | – | – | 0.1 (≈ 0.0331 µg/mL)

More lines, now with the values ahead:

half-life [1] [h] | degraded at 21 h [2] [%] | Stability [3] | MIC (Escherichia coli) [µM] | SMILES
0.35 | – | – | – | CNCC(=O)OCOC(=O)N1CCN(c2cc3c(cc2F)c(=O)c(C(=O)O)cn3C2CC2)CC1
1.6 | – | – | – | CNCC(=O)OC(C)OC(=O)N1CCN(c2cc3c(cc2F)c(=O)c(C(=O)O)cn3C2CC2)CC1 (stereo not given)
2.4 | – | – | – | CN[C@H](C(=O)OC(C)OC(=O)N1CCN(c2cc3c(cc2F)c(=O)c(C(=O)O)cn3C2CC2)CC1)C(C)C (stereo not given in full)
> 60 | 20 | – | – | CC(OC(=O)[C@H](C)NC(=O)c1ccccc1)OC(=O)N1CCN(c2cc3c(cc2F)c(=O)c(C(=O)O)cn3C2CC2)CC1 (stereo not given in full)
> 130 | 10 | – | – | CC(OC(=O)[C@@H](NC(=O)c1ccccc1)C(C)C)OC(=O)N1CCN(c2cc3c(cc2F)c(=O)c(C(=O)O)cn3C2CC2)CC1 (stereo not given in full)
